Experimental data as given in PMC5218480 (PLoS ONE, 2017).

Test system: MV-4-11 cells
Test: Gene expression microarray analysis (Affymetrix PrimeView) and GSEA
Type: cell-based, human
Parameters: RFU PODN (11730768_x_at) / Fold change /veh PODN (11730768_x_at) / RFU LINC00158 (11744669_a_at) / Fold change /veh LINC00158 (11744669_a_at) / RFU DUSP10 (11751237_a_at) / Fold change /veh DUSP10 (11751237_a_at) / RFU ID3 (11757404_x_at) / Fold change /veh ID3 (11757404_x_at) / RFU PLEKHG5 (11737974_s_at) / Fold change /veh PLEKHG5 (11737974_s_at) / RFU LRRC4B (11730491_at) / Fold change /veh LRRC4B (11730491_at) / RFU GIMAP4 (11747438_a_at) / Fold change /veh GIMAP4 (11747438_a_at) / RFU KRT8 (11758183_x_at) / Fold change /veh KRT8 (11758183_x_at) / RFU CNN1 (11734310_a_at) / Fold change /veh CNN1 (11734310_a_at) / RFU VPS37D (11726825_at) / Fold change /veh VPS37D (11726825_at) / RFU C10orf10 (11716522_x_at) / Fold change /veh C10orf10 (11716522_x_at) / RFU KIR2DL2 /// KIR2DL4 /// KIR2DL5A /// KIR2DL5B /// KIR2DS1 /// KIR2DS2 /// KIR2DS3 /// KIR2DS4 /// KIR3DL3 /// KIR3DL3 /// KIR3DS1 (11738374_at) / Fold change /veh KIR2DL2 /// KIR2DL4 /// KIR2DL5A /// KIR2DL5B /// KIR2DS1 /// KIR2DS2 /// KIR2DS3 /// KIR2DS4 /// KIR3DL3 /// KIR3DL3 /// KIR3DS1 (11738374_at) / RFU C1QL1 (11718748_at) / Fold change /veh C1QL1 (11718748_at) / RFU TMPRSS4 (11747572_a_at) / Fold change /veh TMPRSS4 (11747572_a_at) / RFU HAMP (11756126_x_at) / Fold change /veh HAMP (11756126_x_at) / RFU RNFT2 (11725882_a_at) / Fold change /veh RNFT2 (11725882_a_at) / RFU NR4A2 (11747474_a_at) / Fold change /veh NR4A2 (11747474_a_at) / RFU ABCC12 (11746883_a_at) / Fold change /veh ABCC12 (11746883_a_at) / RFU TMEM136 (11760407_x_at) / Fold change /veh TMEM136 (11760407_x_at) / RFU CLDN22 /// WWC2 (11732394_at) / Fold change /veh CLDN22 /// WWC2 (11732394_at) / RFU HLA-DPB1 (11760878_x_at) / Fold change /veh HLA-DPB1 (11760878_x_at) / RFU SPINT1 (11716480_a_at) / Fold change /veh SPINT1 (11716480_a_at) / RFU GAP43 (11754022_s_at) / Fold change /veh GAP43 (11754022_s_at) / RFU A4GNT (11735810_at) / Fold change /veh A4GNT (11735810_at) / RFU PRB3 (11715151_x_at) / Fold change /veh PRB3 (11715151_x_at) / RFU TUBB4B (11761932_at) / Fold change /veh TUBB4B (11761932_at) / RFU CAPN14 (11732068_a_at) / Fold change /veh CAPN14 (11732068_a_at) / RFU TMCC2 (11721928_a_at) / Fold change /veh TMCC2 (11721928_a_at) / RFU IRGQ (11745062_a_at) / Fold change /veh IRGQ (11745062_a_at) / RFU FAM174B (11720279_a_at) / Fold change /veh FAM174B (11720279_a_at) / RFU TMPRSS4 (11748680_a_at) / Fold change /veh TMPRSS4 (11748680_a_at) / RFU FAM212B (11763350_a_at) / Fold change /veh FAM212B (11763350_a_at) / RFU PLEKHG5 (11743358_a_at) / Fold change /veh PLEKHG5 (11743358_a_at) / RFU ZSCAN30 (11745921_a_at) / Fold change /veh ZSCAN30 (11745921_a_at) / RFU CMKLR1 (11741424_a_at) / Fold change /veh CMKLR1 (11741424_a_at) / RFU LOC101060620 /// MAPK8IP1 (11723275_at) / Fold change /veh LOC101060620 /// MAPK8IP1 (11723275_at) / RFU SPTSSB (11747773_x_at) / Fold change /veh SPTSSB (11747773_x_at) / RFU PRSS12 (11739890_at) / Fold change /veh PRSS12 (11739890_at) / RFU BIN1 (11741810_x_at) / Fold change /veh BIN1 (11741810_x_at) / RFU WNT11 (11732464_a_at) / Fold change /veh WNT11 (11732464_a_at) / RFU C10orf10 (11716521_a_at) / Fold change /veh C10orf10 (11716521_a_at) / RFU C5orf56 (11738089_at) / Fold change /veh C5orf56 (11738089_at) / RFU CYB561 (11721691_x_at) / Fold change /veh CYB561 (11721691_x_at) / RFU ANKRD19P (11752326_a_at) / Fold change /veh ANKRD19P (11752326_a_at) / RFU OR2T12 /// OR2T33 /// OR2T8 (11738714_s_at) / Fold change /veh OR2T12 /// OR2T33 /// OR2T8 (11738714_s_at) / RFU VCAN (11748164_a_at) / Fold change /veh VCAN (11748164_a_at) / RFU JSRP1 (11732532_at) / Fold change /veh JSRP1 (11732532_at) / RFU KRTAP10-11 (11738290_x_at) / Fold change /veh KRTAP10-11 (11738290_x_at) / RFU MYO3A (11730013_a_at) / Fold change /veh MYO3A (11730013_a_at) / RFU EBF3 (11725865_a_at) / Fold change /veh EBF3 (11725865_a_at) / RFU CAMK2N1 (11719241_x_at) / Fold change /veh CAMK2N1 (11719241_x_at) / RFU C5orf56 (11738088_a_at) / Fold change /veh C5orf56 (11738088_a_at) / RFU OLFML3 (11715873_a_at) / Fold change /veh OLFML3 (11715873_a_at) / RFU LOC100653217 /// NTM (11731650_a_at) / Fold change /veh LOC100653217 /// NTM (11731650_a_at) / RFU MAPK11 (11762145_a_at) / Fold change /veh MAPK11 (11762145_a_at) / RFU FIZ1 (11724087_x_at) / Fold change /veh FIZ1 (11724087_x_at) / RFU OASL (11726364_x_at) / Fold change /veh OASL (11726364_x_at) / RFU SOX15 (11748057_x_at) / Fold change /veh SOX15 (11748057_x_at) / RFU CD79A (11719716_a_at) / Fold change /veh CD79A (11719716_a_at) / RFU HIST1H1D (11736915_at) / Fold change /veh HIST1H1D (11736915_at) / RFU CASKIN2 (11723855_a_at) / Fold change /veh CASKIN2 (11723855_a_at) / RFU LOC730098 (11760151_x_at) / Fold change /veh LOC730098 (11760151_x_at) / RFU OR4N2 (11742367_at) / Fold change /veh OR4N2 (11742367_at) / RFU PRRT2 (11749266_a_at) / Fold change /veh PRRT2 (11749266_a_at) / RFU SNX32 (11753110_a_at) / Fold change /veh SNX32 (11753110_a_at) / RFU CDHR5 (11726645_a_at) / Fold change /veh CDHR5 (11726645_a_at) / RFU RCAN1 (11760418_a_at) / Fold change /veh RCAN1 (11760418_a_at) / RFU FAM167A (11723789_a_at) / Fold change /veh FAM167A (11723789_a_at) / RFU FAM26E (11764081_at) / Fold change /veh FAM26E (11764081_at) / RFU ISYNA1 (11749810_s_at) / Fold change /veh ISYNA1 (11749810_s_at) / RFU ACY1 (11761880_at) / Fold change /veh ACY1 (11761880_at) / RFU 11764098_at / Fold change /veh 11764098_at / RFU SAMD14 (11745864_x_at) / Fold change /veh SAMD14 (11745864_x_at) / RFU NPB (11741838_a_at) / Fold change /veh NPB (11741838_a_at) / RFU TMPRSS6 (11731388_a_at) / Fold change /veh TMPRSS6 (11731388_a_at) / RFU KRTAP10-2 (11738614_at) / Fold change /veh KRTAP10-2 (11738614_at) / RFU ARHGAP8 /// PRR5-ARHGAP8 (11727945_x_at) / Fold change /veh ARHGAP8 /// PRR5-ARHGAP8 (11727945_x_at) / RFU KRTAP5-7 /// NADSYN1 (11734609_at) / Fold change /veh KRTAP5-7 /// NADSYN1 (11734609_at) / RFU RASL12 (11751679_a_at) / Fold change /veh RASL12 (11751679_a_at) / RFU CDKN2B (11736163_a_at) / Fold change /veh CDKN2B (11736163_a_at) / RFU PRF1 (11729649_at) / Fold change /veh PRF1 (11729649_at) / RFU, ZNF638 /// ZNF638-IT1 / Fold change vs veh, ZNF638 /// ZNF638-IT1 / RFU, PANK3 / Fold change vs veh, PANK3 / RFU, SH3YL1 / Fold change vs veh, SH3YL1 / RFU, ZEB2 / Fold change vs veh, ZEB2 / RFU, NRIP1 / Fold change vs veh, NRIP1 / RFU, PTTG1IP / Fold change vs veh, PTTG1IP / RFU, CAPN2 / Fold change vs veh, CAPN2 / RFU, MED14 / Fold change vs veh, MED14 / RFU, SNORA58 / Fold change vs veh, SNORA58 / RFU, C1orf63 / Fold change vs veh, C1orf63 / RFU, LRRFIP1 / Fold change vs veh, LRRFIP1 / RFU, NDUFAF7 / Fold change vs veh, NDUFAF7 / RFU, SLC12A2 / Fold change vs veh, SLC12A2 / RFU, IBTK / Fold change vs veh, IBTK / RFU, ESF1 / Fold change vs veh, ESF1 / Fold change vs veh, TMEM50B / RFU, TAOK1 / Fold change vs veh, TAOK1 / RFU, ACBD3 / Fold change vs veh, ACBD3 / RFU, TMA16 / Fold change vs veh, TMA16 / RFU, RWDD3 / Fold change vs veh, RWDD3 / RFU, BCAT1 / Fold change vs veh, BCAT1 / RFU, EDEM3 / Fold change vs veh, EDEM3 / RFU, TMEM33 / Fold change vs veh, TMEM33 / RFU, WDR75 / Fold change vs veh, WDR75 / RFU, AHCTF1 / Fold change vs veh, AHCTF1 / RFU, TFRC / Fold change vs veh, TFRC / RFU, ZDHHC17 / Fold change vs veh, ZDHHC17 / RFU, NOM1 / Fold change vs veh, NOM1 / RFU, ARL8B / Fold change vs veh, ARL8B / RFU, ZBTB11 / Fold change vs veh, ZBTB11 / RFU, TAMM41 / Fold change vs veh, TAMM41 / RFU, KIAA1704 /// LOC100996395 / Fold change vs veh, KIAA1704 /// LOC100996395 / RFU, ING1 / Fold change vs veh, ING1 / RFU, TRMT61B / Fold change vs veh, TRMT61B / RFU, FUBP3 / Fold change vs veh, FUBP3 / RFU, TP53 / Fold change vs veh, TP53 / RFU, TNKS2 / Fold change vs veh, TNKS2 / RFU, ZFP14 / Fold change vs veh, ZFP14 / RFU, ACTR2 / Fold change vs veh, ACTR2 / RFU, PPP3R1 / Fold change vs veh, PPP3R1 / RFU, PIK3R1 / Fold change vs veh, PIK3R1 / RFU, HNRNPA1 / Fold change vs veh, HNRNPA1 / RFU, RNF170 / Fold change vs veh, RNF170 / RFU, ZNF28 / Fold change vs veh, ZNF28 / RFU, RNGTT / Fold change vs veh, RNGTT / RFU, OGT / Fold change vs veh, OGT / RFU, BRD1 / Fold change vs veh, BRD1 / RFU, MARS / Fold change vs veh, MARS / RFU, ZNF655 / Fold change vs veh, ZNF655 / RFU, FAHD1 / Fold change vs veh, FAHD1 / RFU, BDP1 / Fold change vs veh, BDP1 / RFU, LRRCC1 / Fold change vs veh, LRRCC1 / RFU, ARID1A / Fold change vs veh, ARID1A / RFU, ZNF146 / Fold change vs veh, ZNF146 / RFU, ZNF330 / Fold change vs veh, ZNF330 / RFU, GPN3 / Fold change vs veh, GPN3 / RFU, C9orf123 / Fold change vs veh, C9orf123 / RFU, N4BP2L2 / Fold change vs veh, N4BP2L2 / RFU, ARFIP1 / Fold change vs veh, ARFIP1 / RFU, FAM179B / Fold change vs veh, FAM179B / RFU, BCL10 / Fold change vs veh, BCL10 / RFU, UHRF1BP1L / Fold change vs veh, UHRF1BP1L / RFU, BET1 / Fold change vs veh, BET1 / RFU, CNOT2 / Fold change vs veh, CNOT2 / RFU, ZNF268 / Fold change vs veh, ZNF268 / Fold change vs veh, ZNF507 / RFU, DGCR2 / Fold change vs veh, DGCR2 / RFU, WDSUB1 / Fold change vs veh, WDSUB1 / Fold change vs veh, HSP90B1 /// MIR3652 / RFU, ADSS / Fold change vs veh, ADSS / RFU, GK / Fold change vs veh, GK / RFU, ZNF148 / Fold change vs veh, ZNF148 / RFU, TAF9 / Fold change vs veh, TAF9 / RFU, SLC1A5 / Fold change vs veh, SLC1A5 / RFU, SLMO2 / Fold change vs veh, SLMO2 / RFU, ABCC4 / Fold change vs veh, ABCC4 / RFU, LOC101060439 /// RAP1B / Fold change vs veh, LOC101060439 /// RAP1B / RFU, RFX7 / Fold change vs veh, RFX7 / RFU, GTPBP10 / Fold change vs veh, GTPBP10 / RFU, CNEP1R1 / Fold change vs veh, CNEP1R1 / RFU, BIVM-ERCC5 /// ERCC5 / Fold change vs veh, BIVM-ERCC5 /// ERCC5 / RFU, ILF3 / Fold change vs veh, ILF3 / RFU 11762660_at / Fold change /veh 11762660_at / RFU VCAN (11757783_s_at) / Fold change /veh VCAN (11757783_s_at) / RFU DDX43 (11728927_at) / Fold change /veh DDX43 (11728927_at) / RFU KRT8 (11758188_x_at) / Fold change /veh KRT8 (11758188_x_at) / RFU NKD1 (11759106_at) / Fold change /veh NKD1 (11759106_at) / RFU SRD5A1 (11742802_a_at) / Fold change /veh SRD5A1 (11742802_a_at) / RFU TPSAB1 /// TPSB2 (11721975_s_at) / Fold change /veh TPSAB1 /// TPSB2 (11721975_s_at) / RFU GSTM3 (11746129_a_at) / Fold change /veh GSTM3 (11746129_a_at) / RFU IL23R (11737362_x_at) / Fold change /veh IL23R (11737362_x_at) / RFU TMEM51 (11727254_a_at) / Fold change /veh TMEM51 (11727254_a_at) / RFU PIWIL2 (11732686_x_at) / Fold change /veh PIWIL2 (11732686_x_at) / RFU ORM1 (11744905_x_at) / Fold change /veh ORM1 (11744905_x_at) / RFU CCDC152 (11743942_at) / Fold change /veh CCDC152 (11743942_at) / RFU ECM1 (11717891_a_at) / Fold change /veh ECM1 (11717891_a_at) / RFU IL23R (11748794_a_at) / Fold change /veh IL23R (11748794_a_at) / RFU TNFAIP8L3 (11732012_x_at) / Fold change /veh TNFAIP8L3 (11732012_x_at) / RFU MBOAT4 (11741988_at) / Fold change /veh MBOAT4 (11741988_at) / RFU 11764193_at / Fold change /veh 11764193_at / RFU TMEM53 (11763286_at) / Fold change /veh TMEM53 (11763286_at) / RFU MAGEB2 (11727129_at) / Fold change /veh MAGEB2 (11727129_at) / RFU TMEM200A (11744735_a_at) / Fold change /veh TMEM200A (11744735_a_at) / RFU CCDC152 (11751479_a_at) / Fold change /veh CCDC152 (11751479_a_at) / RFU FAM211A (11726209_a_at) / Fold change /veh FAM211A (11726209_a_at) / RFU RGS16 (11746705_a_at) / Fold change /veh RGS16 (11746705_a_at) / RFU VCAN (11755009_s_at) / Fold change /veh VCAN (11755009_s_at) / RFU RHOB (11743442_s_at) / Fold change /veh RHOB (11743442_s_at) / RFU RGS16 (11720943_a_at) / Fold change /veh RGS16 (11720943_a_at) / RFU RGS16 (11720944_at) / Fold change /veh RGS16 (11720944_at) / RFU, VPS4B / Fold change vs veh, VPS4B / RFU, CREB1 / Fold change vs veh, CREB1 / RFU, DNAJC13 / Fold change vs veh, DNAJC13 / RFU, GNAQ / Fold change vs veh, GNAQ / RFU, CDK5R1 / Fold change vs veh, CDK5R1 / RFU, ZRANB3 / Fold change vs veh, ZRANB3 / RFU, CUL4A / Fold change vs veh, CUL4A / RFU, CCNY / Fold change vs veh, CCNY / RFU, UFL1 / Fold change vs veh, UFL1 / RFU, COG3 / Fold change vs veh, COG3 / RFU, DIAPH2 / Fold change vs veh, DIAPH2 / RFU, SKA2 / Fold change vs veh, SKA2 / RFU, AFF3 / Fold change vs veh, AFF3 / RFU, LMF1 / Fold change vs veh, LMF1 / RFU, IPO11 / Fold change vs veh, IPO11 / RFU, DFFB / Fold change vs veh, DFFB / RFU, FOXP1 / Fold change vs veh, FOXP1 / RFU, CARD8 / Fold change vs veh, CARD8 / RFU, STRN3 / Fold change vs veh, STRN3 / RFU, ADK / Fold change vs veh, ADK / RFU, RASSF2 / Fold change vs veh, RASSF2 / RFU, WIPF1 / Fold change vs veh, WIPF1 / RFU, LARP1B / Fold change vs veh, LARP1B / RFU, RASA1 / Fold change vs veh, RASA1 / RFU, RB1 / Fold change vs veh, RB1 / RFU, PPFIA1 / Fold change vs veh, PPFIA1 / RFU, MAT2A / Fold change vs veh, MAT2A / RFU, CCT5 / Fold change vs veh, CCT5 / RFU, WDR92 / Fold change vs veh, WDR92 / RFU, CUX1 / Fold change vs veh, CUX1 / RFU, TTC7A / Fold change vs veh, TTC7A / RFU, TMEM135 / Fold change vs veh, TMEM135 / RFU, DEPTOR / Fold change vs veh, DEPTOR / RFU, CPM / Fold change vs veh, CPM / RFU, DNAJB6 / Fold change vs veh, DNAJB6 / RFU, CACNA2D3 / Fold change vs veh, CACNA2D3 / RFU, DTX4 / Fold change vs veh, DTX4 / RFU, TFCP2 / Fold change vs veh, TFCP2 / RFU, GMCL1 /// GMCL1P1 / Fold change vs veh, GMCL1 /// GMCL1P1 / RFU, AEBP2 / Fold change vs veh, AEBP2 / RFU, SNHG1 /// SNORD22 /// SNORD25 /// SNORD26 /// SNORD27 /// SNORD28 /// SNORD29 /// SNORD31 / Fold change vs veh, SNHG1 /// SNORD22 /// SNORD25 /// SNORD26 /// SNORD27 /// SNORD28 /// SNORD29 /// SNORD31 / Fold change (Aza/veh), C12orf56 (ProbeSet 11735607_a_at) / Fold change (ACY-1035/veh), C12orf56 (ProbeSet 11735607_a_at) / Fold change (Aza/veh), FGFR1OP (ProbeSet 11751329_s_at) / Fold change (ACY-1035/veh), FGFR1OP (ProbeSet 11751329_s_at) / Fold change (Aza/veh), VPS36 (ProbeSet 11739960_a_at) / Fold change (ACY-1035/veh), VPS36 (ProbeSet 11739960_a_at) / RFU SYPL1 (11715823_x_at) / Fold change /veh SYPL1 (11715823_x_at) / RFU IGFBP7 (11715501_s_at) / Fold change /veh IGFBP7 (11715501_s_at) / RFU REEP3 (11722064_at) / Fold change /veh REEP3 (11722064_at) / RFU IGLL1 (11728026_x_at) / Fold change /veh IGLL1 (11728026_x_at): dose or concentration left out as unconfirmed
Conditions: ProbeSet 11730252_s_at; LIST B

With `Nc1ncn([C@@H]2O[C@H](CO)[C@@H](O)[C@H]2O)c(=O)n1` [azacitidine] the “Fold change vs veh, AHCTF1” value was 0.94.
